From ChEMBL document CHEMBL1201862, “PubChem BioAssay data set” (2004) come the findings set out here.

Broadly, the IC50 is the concentration that inhibits the measured activity by half. What is called EC50 is the midpoint of the concentration-response curve. As a reminder, the AC50 is the midpoint of the concentration-response curve, whichever way the signal moves.

Assay [1] has as its target Mu-type opioid receptor (Homo sapiens, UniProt P35372). The experiment in a line: SAR Analysis of Antagonists of the MOR Receptor using an Image-Based Assay - Set 3. [Related pubchem assays (depositor defined):AID1777, AID1785, AID1786, AID1966, AID2133, AID2136, AID2284, AID2285, AID2420]. The assay is classed as functional.
In assay [2] the target is T1, Kappa-type opioid receptor (Homo sapiens, UniProt P41145). The assay is described as follows: SAR analysis of small molecule antagonists of the kappa opioid receptor via a luminescent beta-arrestin assay - Set 6. [Related pubchem assays (depositor defined):AID1777, AID1778, AID1785, AID1786, AID1966, AID2133, AID2136, AID2285]. The format is functional.
T1 sequence (P41145 whole entry): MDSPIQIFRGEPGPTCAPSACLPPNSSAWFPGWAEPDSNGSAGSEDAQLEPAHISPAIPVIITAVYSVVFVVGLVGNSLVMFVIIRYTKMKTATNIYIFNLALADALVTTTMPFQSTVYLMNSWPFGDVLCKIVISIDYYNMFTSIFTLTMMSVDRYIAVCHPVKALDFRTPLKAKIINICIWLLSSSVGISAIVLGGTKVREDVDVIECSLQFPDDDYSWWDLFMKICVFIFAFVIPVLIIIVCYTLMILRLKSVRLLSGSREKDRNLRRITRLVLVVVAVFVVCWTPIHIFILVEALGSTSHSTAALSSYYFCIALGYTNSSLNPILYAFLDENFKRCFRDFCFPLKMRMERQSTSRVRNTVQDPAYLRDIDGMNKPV
The target in assay [3] is T1, Kappa-type opioid receptor. The assay is described as follows: SAR analysis of small molecule antagonists of the kappa opioid receptor via a luminescent beta-arrestin assay - Set 4. [Related pubchem assays (depositor defined):AID1777, AID1778, AID1785, AID1786, AID1966, AID2133, AID2136, AID2285]. The assay is classed as functional.
Assay [4] deals with Delta-type opioid receptor (Homo sapiens, UniProt P41143). The experiment in a line: SAR Analysis of Antagonists of the DOR Receptor using an Image-Based Assay - Set 3. [Related pubchem assays (depositor defined):AID1777, AID1785]. The format is functional.
Delta-type opioid receptor, sequence (P41143 whole entry): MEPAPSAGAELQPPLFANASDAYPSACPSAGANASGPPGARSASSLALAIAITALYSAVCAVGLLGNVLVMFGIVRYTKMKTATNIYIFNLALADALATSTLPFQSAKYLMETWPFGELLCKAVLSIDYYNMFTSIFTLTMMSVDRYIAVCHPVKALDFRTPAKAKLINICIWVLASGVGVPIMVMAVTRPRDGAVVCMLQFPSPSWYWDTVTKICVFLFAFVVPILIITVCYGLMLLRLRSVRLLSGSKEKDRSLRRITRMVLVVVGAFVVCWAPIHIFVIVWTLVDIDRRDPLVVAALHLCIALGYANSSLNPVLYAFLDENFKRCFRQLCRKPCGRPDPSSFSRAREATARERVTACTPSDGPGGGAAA
The target of assay [5] is T1, Kappa-type opioid receptor. The assay is described as follows: SAR analysis of Antagonists of the Kappa Opioid Receptor (KOR) using an Image-Based Assay - Set 4. [Related pubchem assays (depositor defined):AID1777, AID1785]. The assay is classed as functional.
For assay [6], the target named is Mitogen-activated protein kinase 10 (Homo sapiens, UniProt P53779). The experiment in a line: Dose response biochemical screening assay for inhibitors of c-Jun N-Terminal Kinase 3 (JNK3). [Related pubchem assays: 746 ].
Mitogen-activated protein kinase 10, sequence (P53779 whole entry): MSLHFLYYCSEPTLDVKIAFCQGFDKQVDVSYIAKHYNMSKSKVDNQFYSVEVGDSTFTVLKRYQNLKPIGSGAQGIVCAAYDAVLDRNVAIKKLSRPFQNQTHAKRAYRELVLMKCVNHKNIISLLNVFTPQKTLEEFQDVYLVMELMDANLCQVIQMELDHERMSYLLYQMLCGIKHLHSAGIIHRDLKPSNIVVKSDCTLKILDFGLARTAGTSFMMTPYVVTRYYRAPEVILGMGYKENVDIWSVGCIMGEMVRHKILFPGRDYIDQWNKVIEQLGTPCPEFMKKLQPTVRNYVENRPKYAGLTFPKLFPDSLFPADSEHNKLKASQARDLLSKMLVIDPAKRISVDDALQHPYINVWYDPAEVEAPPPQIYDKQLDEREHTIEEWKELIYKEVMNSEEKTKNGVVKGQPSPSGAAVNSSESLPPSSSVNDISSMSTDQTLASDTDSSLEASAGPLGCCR
Assay [7] has as its target Integrin alpha-L (Mus musculus, UniProt P24063). The experiment in a line: modulators of CD8 T cell-vesicle binding, dose response, powder samples, mouse 2C CD8+ cells (AID 504565). The assay is classed as functional.
Assay [8] relates to T-cell. The experiment in a line: loss of vesicle association with mouse CD8+ T cells – mouse 2C CD8+ T cells, flow cytometry, dose response (AID 485284). The assay is classed as functional. On the technique in general: A flow cytometer gives signals particle by particle.
The subject of assay [9] is HEK293. The assay is described as follows: inhibition of NOD1-driven NF-kB reporter – cell-based, luminescence, uHTS, primary screen (AID 1578). The following applies: Homo sapiens. The assay is classed as functional.
Assay [10] concerns HEK293. The assay is described as follows: cells. The format is functional, cell-based. The following applies: Homo sapiens.
The test system of assay [11] is HEK293. The assay is described as follows: cells. The format is functional, cell-based. The following applies: Homo sapiens. The source holds these as a separate data set.
Assay [12] concerns the target Nucleotide-binding oligomerization domain-containing protein 2 (Homo sapiens, UniProt Q9HC29). The experiment in a line: inhibition of NOD2-driven NF-kB reporter – cell-based, luminescence, uHTS, HEK293 (AID 1566). The assay is classed as functional.
Assay [13] concerns HEK293. The experiment in a line: NOD2 signaling inhibitors in MDP-stimulated cells, cell-based, uHTS, luminescence (AID 2001). The format is functional. The conditions noted are these: Homo sapiens.
Assay [14] can be described thus: Trypanosoma cruzi growth suppression in host cells – NIH3T3 host cells, beta-gal luminescence, confirmation (AID 2044).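 Also: intracellular parasites grown in NIH/3T3 mouse fibroblasts as host cells; luminescent beta-galactosidase reporter signal from transgenic T. cruzi replicating inside host cells; inhibitors lower the luminescence signal.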 The format is functional, cell-based.
The subject of assay [15] is HEK293. The experiment in a line: cells. The assay is classed as functional, cell-based. The conditions noted are these: Homo sapiens. This is another data set of the same source.
Assay [16] in a line: viability of PTEN-deleted HCT116 cells – cell-based, HCT116 PTEN knockout, dose response (AID 1047).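 Also: HCT116 colon tumor cells with PTEN knocked out; cells exposed to compound for 60 hours before readout; potency for loss of cell viability measured by luminescence.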 The assay is classed as functional.
Assay [17] can be described thus: viability of HCT116 lacking mutant beta-catenin – cell-based, human colon tumor, dose response (AID 1045).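 Also: HCT116 colon tumor cells with beta catenin knocked out; cells exposed to compound for 60 hours.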 The assay is classed as functional.
The nature of assay [18]: Luminescence Cell-Based Dose Retest to Confirm Inhibitors of Cancer Stem Cells. [Related pubchem assays (depositor defined):AID2717, AID2721]. The format is functional. The conditions noted are these: Homo sapiens.
In assay [19] the target is Neurotensin receptor type 1 (Homo sapiens, UniProt P30989). The format is functional.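 Also: Image-based confirmatory dose-response assay measuring agonist activity at NTR1; NTR1-expressing U2OS osteosarcoma cells imaged for beta-arrestin GFP spot formation; agonist potency where compounds increase beta-arrestin recruitment.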
Neurotensin receptor type 1, sequence (P30989 whole entry): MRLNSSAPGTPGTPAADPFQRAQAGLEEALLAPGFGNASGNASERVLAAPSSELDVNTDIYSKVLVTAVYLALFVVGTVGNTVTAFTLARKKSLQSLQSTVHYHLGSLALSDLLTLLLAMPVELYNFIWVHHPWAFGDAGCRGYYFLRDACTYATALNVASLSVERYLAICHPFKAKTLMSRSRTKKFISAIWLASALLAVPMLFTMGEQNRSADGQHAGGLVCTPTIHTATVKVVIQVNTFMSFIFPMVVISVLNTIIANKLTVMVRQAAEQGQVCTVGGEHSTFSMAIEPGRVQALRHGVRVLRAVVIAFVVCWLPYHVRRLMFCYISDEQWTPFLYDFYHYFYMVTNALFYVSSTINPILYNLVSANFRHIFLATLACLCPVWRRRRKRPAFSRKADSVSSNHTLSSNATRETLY
Assay [20] deals with INS1. The assay is described as follows: INS-1E survival protection against cytokine death – cell-based, luminescence, retest, dose response (AID 449756).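 Also: cell death triggered by IL-1 beta plus TNF-alpha plus IFN-gamma mixture; protective hits raise ATP signal compared with cytokine alone wells.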 The following applies: Rattus norvegicus. The assay is classed as functional.
In assay [21] the target is T2, Estrogen receptor (Homo sapiens, UniProt P03372).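 Also: potency for inhibiting coactivator peptide recruitment to the receptor.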
T2 sequence (P03372 whole entry): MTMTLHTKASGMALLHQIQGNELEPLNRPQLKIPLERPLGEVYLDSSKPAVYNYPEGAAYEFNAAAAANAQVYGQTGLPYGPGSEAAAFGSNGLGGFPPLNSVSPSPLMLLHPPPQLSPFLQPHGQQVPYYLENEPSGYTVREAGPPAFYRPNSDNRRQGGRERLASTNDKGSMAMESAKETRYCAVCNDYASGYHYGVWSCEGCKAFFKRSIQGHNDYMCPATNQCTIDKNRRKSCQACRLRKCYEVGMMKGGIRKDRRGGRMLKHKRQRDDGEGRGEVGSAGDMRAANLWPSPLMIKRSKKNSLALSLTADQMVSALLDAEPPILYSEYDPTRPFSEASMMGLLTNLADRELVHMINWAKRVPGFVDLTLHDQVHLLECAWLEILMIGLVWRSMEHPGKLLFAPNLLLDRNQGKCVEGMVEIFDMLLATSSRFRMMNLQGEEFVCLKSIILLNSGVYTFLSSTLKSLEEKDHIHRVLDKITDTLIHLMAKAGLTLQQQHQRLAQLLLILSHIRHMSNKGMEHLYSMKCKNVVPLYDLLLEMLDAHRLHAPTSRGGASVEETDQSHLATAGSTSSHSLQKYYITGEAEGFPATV

Assay [22] concerns the target G-protein coupled receptor 55 (Homo sapiens, UniProt Q9Y2T6). The experiment in a line: selective activators of receptor GPR55 – imaging, U2OS cells, beta-arrestin-GFP redistribution, primary screen (AID 1961). The assay is classed as functional.

Activity calls are given as the source filed them. A value given as a limit tells only on which side of the number the result lay.

Nucleotide-binding oligomerization domain-containing protein 2, sequence (Q9HC29 whole entry, the tested form may be a part): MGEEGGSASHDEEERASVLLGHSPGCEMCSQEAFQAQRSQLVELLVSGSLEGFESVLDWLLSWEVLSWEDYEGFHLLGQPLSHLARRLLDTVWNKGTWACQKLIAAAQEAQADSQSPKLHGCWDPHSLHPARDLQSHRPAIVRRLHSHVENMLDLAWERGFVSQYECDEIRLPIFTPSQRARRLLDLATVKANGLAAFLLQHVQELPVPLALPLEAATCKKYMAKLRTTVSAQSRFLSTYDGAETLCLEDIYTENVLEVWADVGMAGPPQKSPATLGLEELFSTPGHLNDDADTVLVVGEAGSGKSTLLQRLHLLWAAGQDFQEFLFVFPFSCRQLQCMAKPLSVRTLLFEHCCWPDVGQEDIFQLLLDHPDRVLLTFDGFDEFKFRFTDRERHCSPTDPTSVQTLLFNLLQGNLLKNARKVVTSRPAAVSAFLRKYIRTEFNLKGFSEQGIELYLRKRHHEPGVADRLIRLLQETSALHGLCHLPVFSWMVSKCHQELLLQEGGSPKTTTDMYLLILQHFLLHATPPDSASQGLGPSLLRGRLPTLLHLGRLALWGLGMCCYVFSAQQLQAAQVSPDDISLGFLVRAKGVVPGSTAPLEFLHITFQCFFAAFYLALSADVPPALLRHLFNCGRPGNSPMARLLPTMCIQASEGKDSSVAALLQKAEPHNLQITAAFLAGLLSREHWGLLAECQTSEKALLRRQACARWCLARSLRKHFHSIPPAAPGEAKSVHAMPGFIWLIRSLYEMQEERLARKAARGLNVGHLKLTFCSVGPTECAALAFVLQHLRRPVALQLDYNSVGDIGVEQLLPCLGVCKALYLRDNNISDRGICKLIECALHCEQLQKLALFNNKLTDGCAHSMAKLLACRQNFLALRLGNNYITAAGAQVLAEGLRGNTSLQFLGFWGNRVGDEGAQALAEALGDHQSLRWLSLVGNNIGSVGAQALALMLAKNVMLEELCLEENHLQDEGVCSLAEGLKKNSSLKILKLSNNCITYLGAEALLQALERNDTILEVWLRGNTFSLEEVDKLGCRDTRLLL
G-protein coupled receptor 55, sequence (Q9Y2T6 whole entry): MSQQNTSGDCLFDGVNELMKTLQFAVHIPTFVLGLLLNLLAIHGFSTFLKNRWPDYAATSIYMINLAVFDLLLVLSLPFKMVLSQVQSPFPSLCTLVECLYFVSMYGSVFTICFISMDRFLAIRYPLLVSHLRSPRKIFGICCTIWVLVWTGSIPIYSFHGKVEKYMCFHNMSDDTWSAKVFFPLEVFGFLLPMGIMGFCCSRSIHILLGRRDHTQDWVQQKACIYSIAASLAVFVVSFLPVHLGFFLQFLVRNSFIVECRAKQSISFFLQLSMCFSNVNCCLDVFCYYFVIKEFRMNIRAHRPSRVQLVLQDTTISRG
Mu-type opioid receptor, sequence (P35372 whole entry): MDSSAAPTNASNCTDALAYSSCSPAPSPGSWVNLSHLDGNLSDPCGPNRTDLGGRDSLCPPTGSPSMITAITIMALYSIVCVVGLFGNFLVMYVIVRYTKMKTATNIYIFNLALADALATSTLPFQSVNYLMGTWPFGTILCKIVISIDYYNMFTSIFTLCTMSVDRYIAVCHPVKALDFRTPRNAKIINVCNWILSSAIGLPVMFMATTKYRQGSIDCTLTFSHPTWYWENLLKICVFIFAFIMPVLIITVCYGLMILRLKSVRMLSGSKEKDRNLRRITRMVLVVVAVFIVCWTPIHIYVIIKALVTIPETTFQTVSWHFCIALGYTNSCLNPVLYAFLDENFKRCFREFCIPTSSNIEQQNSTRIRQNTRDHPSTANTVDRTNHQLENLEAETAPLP
Integrin alpha-L, sequence (P24063 whole entry): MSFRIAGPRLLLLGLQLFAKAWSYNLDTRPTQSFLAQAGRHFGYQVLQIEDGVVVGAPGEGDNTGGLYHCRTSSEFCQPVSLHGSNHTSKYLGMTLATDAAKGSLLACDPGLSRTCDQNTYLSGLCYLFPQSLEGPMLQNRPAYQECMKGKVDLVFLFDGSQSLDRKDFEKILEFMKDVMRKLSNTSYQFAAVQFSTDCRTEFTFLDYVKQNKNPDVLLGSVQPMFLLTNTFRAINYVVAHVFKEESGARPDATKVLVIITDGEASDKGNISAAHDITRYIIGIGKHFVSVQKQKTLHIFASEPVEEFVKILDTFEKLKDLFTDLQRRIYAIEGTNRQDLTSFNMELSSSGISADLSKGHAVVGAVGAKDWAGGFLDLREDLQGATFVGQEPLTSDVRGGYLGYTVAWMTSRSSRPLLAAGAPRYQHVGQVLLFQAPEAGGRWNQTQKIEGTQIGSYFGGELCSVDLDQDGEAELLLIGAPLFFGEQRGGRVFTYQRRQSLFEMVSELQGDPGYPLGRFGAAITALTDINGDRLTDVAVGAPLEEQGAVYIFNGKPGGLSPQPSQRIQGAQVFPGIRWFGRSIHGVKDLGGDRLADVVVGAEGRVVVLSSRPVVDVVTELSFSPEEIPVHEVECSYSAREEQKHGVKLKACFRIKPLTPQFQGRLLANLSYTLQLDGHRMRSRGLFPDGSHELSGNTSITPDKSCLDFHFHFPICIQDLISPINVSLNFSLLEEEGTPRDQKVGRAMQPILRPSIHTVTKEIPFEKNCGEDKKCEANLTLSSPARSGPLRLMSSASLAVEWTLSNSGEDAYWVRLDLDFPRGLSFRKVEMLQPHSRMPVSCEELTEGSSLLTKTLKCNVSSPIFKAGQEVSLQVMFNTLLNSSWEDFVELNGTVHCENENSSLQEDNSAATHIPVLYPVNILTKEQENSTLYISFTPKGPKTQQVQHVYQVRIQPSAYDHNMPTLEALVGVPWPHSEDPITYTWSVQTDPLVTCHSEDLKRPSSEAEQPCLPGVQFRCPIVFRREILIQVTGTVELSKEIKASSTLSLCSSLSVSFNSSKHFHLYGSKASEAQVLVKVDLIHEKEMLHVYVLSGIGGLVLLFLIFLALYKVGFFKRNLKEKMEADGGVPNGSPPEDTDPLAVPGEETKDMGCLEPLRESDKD

Consider `Cc1ccc(S(=O)(=O)NCc2ccc(C(=O)NCCN3CCc4ccccc4C3)cc2)cc1`, for which the IC50 was > 32 µM (inactive) in assay [1]; > 20 µM (inactive) in assay [2]; > 20 µM (inactive) in assay [3]; > 32 µM (inactive) in assay [4]; 5.98 µM (active) in [5].
As to `CCOc1ccc(-c2nc(N)ncc2-c2ccccc2)c(O)c1`, the IC50 in assay [6] is given as 12.7 µM (not active). For the same compound, the concentration for a half-maximal effect (EC50) is 173 nM (active) in [7] and 25.8 µM (inactive) in assay [8].
Turning to `O=C(/C(=C/c1cccc(Cl)c1)c1nc2ccccc2[nH]1)c1ccccc1`, the EC50 in assay [9] was > 20 µM (inactive); in [12], > 20 µM (inactive); in assay [14] it was 755 nM (active); in assay [16], 3.93 µM (active); in assay [17], 3.7 µM (active); in assay [19], 8.48 µM (active). For the same compound, the IC50 was 1.63 µM (active) in assay [10], 13.4 µM (active) in assay [11], 3.14 µM (active) in [13] and > 20 µM (inactive) in [15]. For the same compound, the AC50 in assay [18] was 1.97 µM (active); in [20], 4.22 µM (active).
As to `CCc1nnc2n1N=C(c1ccc(-c3cc(Cl)ccc3Cl)o1)CS2`, the IC50 in assay [21] is reported as 44 µM (not active). For the same compound, the figures for the EC50 in assay [16], in assay [17] and in assay [22] were 27.1 µM (active), 95.9 µM (active) and 734 nM (active), respectively.
